Measurements from patent publication US11739090B2, “Substituted pyrazlo[3,4-c]pyridines as selective BTK kinase inhibitors” (JUMBO DRUG BANK CO., LTD., priority 2019, dated 2023).
One block for each compound: values may come before it.

Key:
Type in all cases: biochemical
BTK = BTK (Homo sapiens (Human), UniProt Q06187); assay: BTK kinase test (33P-ATP filter binding); conditions: final ATP 5 μM
Experimental: Experimental Example 1: BTK Kinase Test […]
(§1) buffer conditions: 20 mM HEPES (pH 7.5), 10 mM MgCl2, 1 mM EGTA, 0.02% Brij35, 0.02 mg/mL BSA, 0.1 mm Na3VO4, 2 mm DTT, 1% DMSO.
(§2) 2.1. Preparing an indicator substrate in a freshly prepared reaction buffer
(§3) 2.2. Delivering the desired cofactor to the above substrate solution
(§4) 2.3. Delivering the indicated kinase to the substrate solution and gently mixing same
(§5) 2.4. Delivering the compounds in DMSO to the kinase reaction mixture using acoustic technology (Echo550)
2.5. Initiating the reaction (final concentration of ATP: 5 μM) by delivering ^33P-ATP (final specific activity: 0.01 μci/μL) to the reaction mixture
(§6) 2.6. Incubating the kinase reaction at room temperature for 120 minutes
(§7) 2.7. Recording the reaction on P81 ion exchange paper (Whatman #3698-915)
(§8) 2.8. Washing the filter widely with 0.75% phosphoric acid
2.9. Measuring the radioactive phosphorylated substrate remaining on the filter paper. […]
the kinase activity data is expressed as the percentage of the remaining kinase activity in a test sample compared to a reaction with a carrier (dimethyl sulfoxide), and IC50 values and curve fitting are obtained using Prism4 software (GraphPad).

EGFR = EGFR (Homo sapiens (Human), UniProt P00533); assay: EGFR kinase test (33P-ATP filter binding); conditions: for The ratio of the activities of EGFR and BTK: EGFR IC50 / BTK IC50 (first figure of the cell); for IC50: final ATP 2 μM, 120 minutes at room temperature
EGFR, sequence (P00533 25-1210): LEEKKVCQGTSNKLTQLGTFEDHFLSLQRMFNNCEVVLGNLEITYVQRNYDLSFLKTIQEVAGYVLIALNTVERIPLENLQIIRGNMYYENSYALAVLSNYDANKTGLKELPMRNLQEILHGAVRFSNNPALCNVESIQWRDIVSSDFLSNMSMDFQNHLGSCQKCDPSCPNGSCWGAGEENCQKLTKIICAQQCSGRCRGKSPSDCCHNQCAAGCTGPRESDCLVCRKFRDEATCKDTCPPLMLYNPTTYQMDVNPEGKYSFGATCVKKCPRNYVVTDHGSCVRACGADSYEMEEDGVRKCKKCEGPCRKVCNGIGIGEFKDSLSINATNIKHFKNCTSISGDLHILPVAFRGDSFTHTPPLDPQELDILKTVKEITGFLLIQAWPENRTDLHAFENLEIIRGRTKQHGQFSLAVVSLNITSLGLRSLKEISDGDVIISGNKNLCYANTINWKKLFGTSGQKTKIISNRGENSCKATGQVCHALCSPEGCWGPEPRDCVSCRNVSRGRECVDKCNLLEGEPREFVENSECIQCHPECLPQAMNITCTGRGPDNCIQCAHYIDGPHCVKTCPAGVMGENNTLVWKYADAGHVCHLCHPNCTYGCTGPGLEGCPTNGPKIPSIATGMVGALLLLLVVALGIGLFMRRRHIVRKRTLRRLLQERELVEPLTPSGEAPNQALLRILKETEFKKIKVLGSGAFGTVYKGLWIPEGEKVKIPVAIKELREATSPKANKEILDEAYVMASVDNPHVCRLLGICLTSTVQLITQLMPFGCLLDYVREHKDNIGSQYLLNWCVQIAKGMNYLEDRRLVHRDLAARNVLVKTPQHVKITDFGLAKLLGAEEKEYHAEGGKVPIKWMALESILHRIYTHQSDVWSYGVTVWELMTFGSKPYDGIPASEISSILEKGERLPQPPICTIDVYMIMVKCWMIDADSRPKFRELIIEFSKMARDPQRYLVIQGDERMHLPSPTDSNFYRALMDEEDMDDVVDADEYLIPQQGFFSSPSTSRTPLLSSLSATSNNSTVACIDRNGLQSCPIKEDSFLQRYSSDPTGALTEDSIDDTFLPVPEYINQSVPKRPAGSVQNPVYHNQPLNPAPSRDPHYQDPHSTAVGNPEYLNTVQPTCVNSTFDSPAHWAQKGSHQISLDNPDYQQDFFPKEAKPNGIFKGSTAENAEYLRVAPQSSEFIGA
Experimental: (§9) Experimental Example 2: EGFR, ITK and TEC Kinase Test
as §1, §2, §3, §4, §5
(§10) 2.5. Initiating the reaction (final concentration of ATP: 2 μM, 5 μM and 5 μM respectively) by delivering ^33P-ATP (final specific activity: 0.01 μci/μL) to the reaction mixture
as §6, §7, §8
(§11) 2.9. Measuring the radioactive phosphorylated substrate remaining on the filter paper.
(§12) 3. Data analysis: the kinase activity data is expressed as the percentage of the remaining kinase activity in a test sample compared to a reaction with a carrier (dimethyl sulfoxide), and IC50 values and curve fitting are obtained using Prism4 software (GraphPad).

ITK = ITK (Homo sapiens (Human), UniProt Q08881); assay: ITK kinase test (33P-ATP filter binding); conditions: for The ratio of the activities of ITK and BTK: ITK IC50 / BTK IC50 (second figure of the cell); for IC50: final ATP 5 μM
ITK, sequence (Q08881 whole entry): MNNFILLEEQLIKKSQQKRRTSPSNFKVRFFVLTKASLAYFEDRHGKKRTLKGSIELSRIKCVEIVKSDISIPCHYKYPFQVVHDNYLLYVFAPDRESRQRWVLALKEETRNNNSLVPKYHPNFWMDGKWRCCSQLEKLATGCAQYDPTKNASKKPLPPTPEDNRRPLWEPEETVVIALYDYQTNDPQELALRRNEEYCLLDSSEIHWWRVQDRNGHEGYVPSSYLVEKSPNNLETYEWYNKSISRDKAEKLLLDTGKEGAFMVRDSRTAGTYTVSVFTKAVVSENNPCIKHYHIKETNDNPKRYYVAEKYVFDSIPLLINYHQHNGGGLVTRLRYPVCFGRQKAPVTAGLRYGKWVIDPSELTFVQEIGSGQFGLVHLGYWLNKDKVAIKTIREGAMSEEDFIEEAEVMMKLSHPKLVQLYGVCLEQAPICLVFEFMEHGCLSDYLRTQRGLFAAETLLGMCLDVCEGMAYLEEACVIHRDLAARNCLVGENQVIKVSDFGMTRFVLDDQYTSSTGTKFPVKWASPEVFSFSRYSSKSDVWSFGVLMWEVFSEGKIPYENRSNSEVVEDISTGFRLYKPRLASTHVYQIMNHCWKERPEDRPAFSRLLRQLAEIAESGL
Experimental: as §9, §1, §2, §3, §4, §5, §10, §6, §7, §8, §11, §12

TEC = TEC (Homo sapiens (Human), UniProt P42680); assay: TEC kinase test (33P-ATP filter binding); conditions: for The ratio of the activities of TEC and BTK: TEC IC50 / BTK IC50 (third figure of the cell); for IC50: final ATP 5 μM, 120 minutes at room temperature
TEC, sequence (P42680 whole entry): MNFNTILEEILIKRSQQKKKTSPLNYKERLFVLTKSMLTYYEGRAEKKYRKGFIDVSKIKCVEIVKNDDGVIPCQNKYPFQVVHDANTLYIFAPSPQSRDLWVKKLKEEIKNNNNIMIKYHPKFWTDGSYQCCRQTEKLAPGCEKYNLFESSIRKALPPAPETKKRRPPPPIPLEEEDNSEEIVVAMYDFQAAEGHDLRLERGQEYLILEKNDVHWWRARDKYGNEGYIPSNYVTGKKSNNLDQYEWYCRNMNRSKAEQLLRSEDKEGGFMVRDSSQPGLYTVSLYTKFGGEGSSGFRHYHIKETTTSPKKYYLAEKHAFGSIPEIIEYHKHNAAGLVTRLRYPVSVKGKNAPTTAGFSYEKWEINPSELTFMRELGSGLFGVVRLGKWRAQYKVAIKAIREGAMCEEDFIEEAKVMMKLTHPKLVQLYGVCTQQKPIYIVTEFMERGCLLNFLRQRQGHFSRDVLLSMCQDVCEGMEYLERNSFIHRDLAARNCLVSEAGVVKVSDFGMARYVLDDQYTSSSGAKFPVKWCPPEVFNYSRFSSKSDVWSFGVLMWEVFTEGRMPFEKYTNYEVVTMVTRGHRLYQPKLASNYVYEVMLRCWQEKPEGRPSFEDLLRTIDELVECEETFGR
Experimental: as §9, §1, §2, §3, §4, §5, §10, §6, §7, §8, §11, §12

[1] = Table 1, 120 minutes at room temperature

BTK, sequence (Q06187 whole entry): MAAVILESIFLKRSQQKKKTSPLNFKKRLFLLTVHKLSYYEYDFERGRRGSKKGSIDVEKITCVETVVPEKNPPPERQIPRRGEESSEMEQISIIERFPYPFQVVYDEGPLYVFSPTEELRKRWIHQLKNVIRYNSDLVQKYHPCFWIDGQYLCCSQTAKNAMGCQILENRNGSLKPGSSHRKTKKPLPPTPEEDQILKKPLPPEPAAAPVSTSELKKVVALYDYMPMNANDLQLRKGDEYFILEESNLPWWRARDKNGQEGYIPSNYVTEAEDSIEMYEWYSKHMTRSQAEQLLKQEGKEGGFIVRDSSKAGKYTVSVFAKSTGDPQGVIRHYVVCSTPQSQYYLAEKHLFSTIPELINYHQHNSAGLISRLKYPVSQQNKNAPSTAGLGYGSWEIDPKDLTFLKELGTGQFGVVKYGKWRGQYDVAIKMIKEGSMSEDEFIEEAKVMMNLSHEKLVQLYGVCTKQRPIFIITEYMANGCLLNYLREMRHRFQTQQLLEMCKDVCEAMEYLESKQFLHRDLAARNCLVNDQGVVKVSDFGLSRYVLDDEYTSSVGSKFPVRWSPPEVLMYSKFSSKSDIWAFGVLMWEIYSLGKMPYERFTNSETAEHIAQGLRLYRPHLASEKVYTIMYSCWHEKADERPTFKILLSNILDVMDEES

IC50 (BTK; [1]): 31.8 nM
Structure (SMILES): C=CC(=O)N1CCC[C@@H](c2nn(-c3ccc(Oc4cccc(F)c4F)cc3)c3cncc(F)c23)C1 (single isomer, unassigned) [Compound 5A]

Structure (SMILES): C=CC(=O)N1CCO[C@H](c2nn(-c3ccc(Oc4c(F)cccc4F)cc3)c3cncc(F)c23)C1 [Compound 3B]
IC50 (BTK; [1]): 2.7 nM

IC50 (BTK; [1]): 98.1 nM
Structure (SMILES): C=CC(=O)N1CCC[C@H](c2nn(-c3ccc(Oc4cc(F)cc(F)c4F)cc3)c3cncc(F)c23)C1 (single isomer, unassigned) [Compound 4B]

Structure (SMILES): C=CC(=O)N1CCC[C@H](c2nn(-c3ccc(Oc4cc(F)ccc4F)cc3)c3cncc(F)c23)C1 [Compound 6B]
IC50 (BTK; [1]): 140 nM

Structure (SMILES): C=CC(=O)N1CCC[C@@H](c2nn(-c3ccc(Oc4cc(F)ccc4F)cc3)c3cncc(F)c23)C1 [Compound 6A]
IC50 (BTK; [1]): 9.58 nM | IC50 (BTK; Table 2 comparison): 9.58 nM | The ratio of the activities of EGFR and BTK (EGFR): 84 fold | IC50 (EGFR): 812 nM | The ratio of the activities of ITK and BTK (ITK): 764 fold | IC50 (ITK; 120 minutes at room temperature): 7.32 µM | The ratio of the activities of TEC and BTK (TEC): 4-fold | IC50 (TEC): 43.2 nM

IC50 (BTK; [1]): 11 nM | IC50 (BTK; Table 2 comparison): 11 nM | The ratio of the activities of EGFR and BTK (EGFR): 183 fold | IC50 (EGFR): 2020 nM | The ratio of the activities of ITK and BTK (ITK): > 909 fold | IC50 (ITK; unit μM): > 10 µM | The ratio of the activities of TEC and BTK (TEC): fold, 15-fold | IC50 (TEC): 169 nM
Structure (SMILES): C=CC(=O)N1CCC[C@@H](c2nn(-c3ccc(Oc4cc(F)cc(F)c4F)cc3)c3cncc(F)c23)C1 (single isomer, unassigned) [Compound 4A]

Structure (SMILES): C=CC(=O)N1CCO[C@@H](c2nn(-c3ccc(Oc4c(F)cccc4F)cc3)c3cncc(F)c23)C1 [Compound 3A]
IC50 (BTK; [1]): 9.58 nM
